{"source": "patent US8163709B2", "about": "“TAK1-D mediated induction of cell death in human cancer cells by specific sequence short double-stranded RNAS” (Board of Regents of the University of Texas System, priority 2008, dated 2012)", "key": {"NF-κB": {"tested_on": "NF-κB", "assay": "NF-κB activation in H460 cells (EMSA, IKKα/β phosphorylation)", "format": "cell-based, human", "settings": "hours after transfection (3 h, 6 h)", "method": "EMSA. Electrophoretic mobility shift assays for NFκB were performed as described previously (Kurland et al., 2001) using 3.5 μg of nuclear protein for each reaction.\nFIG. 16B illustrates the effect of dominant-negative TAK1-D/K63W on dsRNA si5 induced cell death. […] As a slight growth inhibition of si5 transfected H460-K63W cells can be observed in FIG. 16B it is interesting to ask whether this is caused by an incomplete suppression of TAK1-D activity or by activation of other dsRNA-dependent stress pathways. To answer this question, the activation of the transcription factor NF-κB by dsRNA si5 was tested, as it well established that dsRNA triggered activation of PKR (Zamanian-Daryoush et al., 2000), TLR3 (Jiang et al., 2003), and RIG1/Mda-5 (Hiscott et al., 2006) leads to a downstream activation of NF-κB."}, "TAK1-D/TAB1 complex": {"molecular_target": "T1, TAK1-D/TAB1 complex (Homo sapiens, UniProt O43318)", "T1 construct": "made in house; host or cells: HeLa cells", "T1 sequence (O43318 1-491 isoform O43318-4)": "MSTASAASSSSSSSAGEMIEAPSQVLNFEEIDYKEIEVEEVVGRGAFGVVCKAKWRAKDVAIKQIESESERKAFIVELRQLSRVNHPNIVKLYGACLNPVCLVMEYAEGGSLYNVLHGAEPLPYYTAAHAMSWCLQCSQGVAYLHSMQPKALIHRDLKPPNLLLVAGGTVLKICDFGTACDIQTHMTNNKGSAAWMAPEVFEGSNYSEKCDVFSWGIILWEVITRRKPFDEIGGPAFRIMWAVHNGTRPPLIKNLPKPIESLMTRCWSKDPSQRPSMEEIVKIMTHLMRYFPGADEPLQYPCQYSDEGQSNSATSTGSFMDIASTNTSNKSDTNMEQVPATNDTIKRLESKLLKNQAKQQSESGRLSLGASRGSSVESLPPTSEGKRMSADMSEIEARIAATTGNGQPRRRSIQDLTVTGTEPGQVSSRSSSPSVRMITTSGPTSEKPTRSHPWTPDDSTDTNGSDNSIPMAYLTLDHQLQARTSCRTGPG", "T1 sequence (Q15750 1-504 partner)": "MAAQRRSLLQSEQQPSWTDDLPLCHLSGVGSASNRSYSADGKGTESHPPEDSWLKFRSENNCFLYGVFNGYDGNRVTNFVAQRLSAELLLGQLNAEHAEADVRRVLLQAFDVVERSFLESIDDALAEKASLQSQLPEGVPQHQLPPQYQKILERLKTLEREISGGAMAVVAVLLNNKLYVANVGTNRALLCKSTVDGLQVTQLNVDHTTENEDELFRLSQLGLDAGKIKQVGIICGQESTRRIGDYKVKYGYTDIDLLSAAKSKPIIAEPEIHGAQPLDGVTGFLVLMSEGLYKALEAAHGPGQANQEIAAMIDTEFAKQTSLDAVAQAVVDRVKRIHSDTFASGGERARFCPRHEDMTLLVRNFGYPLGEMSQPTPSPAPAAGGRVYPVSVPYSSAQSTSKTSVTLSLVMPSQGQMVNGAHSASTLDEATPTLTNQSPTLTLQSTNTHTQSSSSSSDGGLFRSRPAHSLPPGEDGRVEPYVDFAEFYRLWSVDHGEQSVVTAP", "assay": "In vitro kinase assay with purified FLAG-TAK1-D/His-TAB1", "format": "biochemical", "settings": "purified proteins, cell-free", "excerpt": "FIGS. 2A-C: Effect of dsRNAs on the activity of purified recombinant TAK1-D protein. (FIG. 2A) In vitro kinase assay showing the activation of TAK1-D autophosphorylation by siRNA si5. FLAG-tagged TAK1-D and His-tagged TAB1 were coexpressed in Hela cells and purified by immunoprecipitation with anti FLAG antibody. […] Error bars indicate the standard error of 3 experiments.\nTo verify if siRNA si5 indeed interacts with TAK1-D directly, the activation of the kinase was studied in vitro using purified proteins. […] To test whether the increased activation of the TAK1-D/TAB1 complex by siRNA si5 is caused by an increased affinity of the RNA molecule to the kinase, binding of radiolabeled siRNAs to immunoprecipitated FLAG tagged TAK1-D was measured. In FIG. 2C the amount of RNA bound to immobilized FLAG-TAK1-D is given.\nFLAG-tagged TAK1-D and HIS-tagged TAB1 were co-expressed in HeLa cells and the proteins were purified through immunoprecipitation with an anti-FLAG antibody."}, "TAK1-D": {"molecular_target": "T2, TAK1-D (Homo sapiens, UniProt O43318)", "T2 sequence (O43318 1-491 isoform O43318-4)": "T1 sequence (O43318 1-491 isoform O43318-4)", "assay": "TAK1-D autophosphorylation on T184/T187 in H460 cells (Western blot, phospho-specific antibody)", "format": "cell-based", "parameters": "endogenous in cells; host or cells: NCI-H460", "settings": "for activating autophosphorylation (activation) of TAK1-D on T184 and T187: H460 cells, RNA transfected (20 nM), Western blot", "method": "In an effort to identify the MAPKKK responsible for the activation of the p38 MAP kinase and SAPK/JNK pathway, several of these kinases were screened for siRNA si5 mediated activation.\nImmunoblot analysis. Western blotting was performed exactly as described previously (Kodym et al., 2008b). In addition to the primary antibodies previously mentioned (Kodym et al., 2008b) the following antibodies were used: S6 ribosomal protein (Cell Signaling #2217), DPM1 (Santa Cruz #sc-15836, Santa Cruz, Calif., USA), and Histone H3 (Cell Signaling #9715)."}, "SAPK/JNK pathway": {"tested_on": "SAPK/JNK pathway", "assay": "Activation of the SAPK/JNK pathway in H460 cells (Western blot)", "format": "cell-based, human", "settings": "for activation of the SAPK/JNK pathway (phosphorylation of MKK4, SAPK/JNK): H460 cells, 20 nM RNA, 2-6 h"}, "TLK1": {"tested_on": "TLK1", "assay": "TLK1 protein level in NCI-H460 cells (Western blot)", "format": "cell-based, human", "settings": "first 6 h after addition", "excerpt": "FIGS. 3A-D illustrate the timecourse as well the downstream signaling events of dsRNA mediated Tak1-D activation in more detail. […] This activation is not triggered by siRNA si6 or by the non-targeting scrambled sequence siNT, even at later timepoints. […] The activation of TAK1-D leads to a phosphorylation of the MAPKKs of both stress activated protein kinase signaling pathways, indicated by the occurrence of activation phosphorylation on MKK3/6 and MKK4 (FIG. 3A). Consecutively activation of MKK3/6 leads to phosphorylation and activation of the p38 MAPK, while activation of MKK4 phosphorylates and activates SAPK/JNK. These mitogen activated protein kinase kinases phosphorylate and activate their respective substrates p38 MAP kinase and SAPK/JNK. […] This provided further confirmation, apart from the rapid occurrence of TAK1-D phosphorylation, that gene silencing effects of the siRNAs play no role in the phenomena described."}}, "note": "Entries after “also recorded” stand apart in the source; their conditions may differ."}
{"substance": "si5: 21-mer siRNA against TLK1 mRNA: GGCUUUUGACCUUUAUGAAtt (SEQ ID NO: 2) / ttCCGAAAACUGGAAAUACUU (SEQ ID NO: 3) (sense GGCUUUUGACCUUUAUGAATT; antisense TTCCGAAAACUGGAAAUACUU; chemistry not given here; one strand is listed 3' to 5')", "values": [{"measurement": "activation of NF-κB (EMSA of nuclear protein)", "setting": "NF-κB", "value": "neither si5 nor si6 transfection lead to an activation; also recorded: does not activate NF-κB"}, {"measurement": "autophosphorylation activity of the TAK1-D/TAB1 complex", "setting": "TAK1-D/TAB1 complex", "value": "increase in autophosphorylation activity; also recorded: increased the autophosphorylation activity"}, {"measurement": "activating autophosphorylation (activation) of TAK1-D on T184 and T187", "setting": "TAK1-D", "value": "a si5 induced signal was detected; also recorded: able to activate Tak1-D; also recorded: leads to phosphorylation of TAK1-D"}, {"measurement": "autophosphorylation signal of Tak1-D six hours after addition", "setting": "TAK1-D; NCI-H460 cells, 6 h", "value": "significantly stronger autophosphorylation signal"}, {"measurement": "activation of the SAPK/JNK pathway (phosphorylation of MKK4, SAPK/JNK)", "setting": "SAPK/JNK pathway", "value": "activation of the stress-activated protein kinase jun-amino-terminal kinase (SAPK/JNK) pathway"}, {"measurement": "activation of the SAPK/JNK pathway (phosphorylation of MKK4, SAPK/JNK)", "setting": "SAPK/JNK pathway; listed as Si5", "value": "phosphorylation and activation of MKK3/6 as well as MKK4"}, {"measurement": "activating phosphorylation of SAPK/JNK in TAK1-D/K63W transfected cells", "setting": "SAPK/JNK pathway; H460 stably transfected with K63W vs wt and vector, 4 h", "value": "very significant reduction; also recorded: significantly reduced"}, {"measurement": "protein levels of Tlk1", "setting": "TLK1", "value": "remain unchanged"}]}
{"substance": "si6: control 21-mer siRNA against TLK1 mRNA: GGGUGGAAAUGGCUCAAGUtt (SEQ ID NO: 4) / gtCCCACCUUUACCGAGUUCA (SEQ ID NO: 5) (sense GGGUGGAAAUGGCUCAAGUTT; antisense GTCCCACCUUUACCGAGUUCA; chemistry not given here; one strand is listed 3' to 5') [reference compound]", "values": [{"measurement": "activation of NF-κB (EMSA of nuclear protein)", "setting": "NF-κB", "value": "neither si5 nor si6 transfection lead to an activation"}, {"measurement": "autophosphorylation activity of the TAK1-D/TAB1 complex", "setting": "TAK1-D/TAB1 complex", "value": "not"}, {"measurement": "activating autophosphorylation (activation) of TAK1-D on T184 and T187", "setting": "TAK1-D", "value": "not triggered"}, {"measurement": "activation of the SAPK/JNK pathway (phosphorylation of MKK4, SAPK/JNK)", "setting": "SAPK/JNK pathway", "value": "had no effect; also recorded: does not occur; also recorded: No activation"}, {"measurement": "protein levels of Tlk1", "setting": "TLK1", "value": "remain unchanged"}]}
